Measured values: US8975415B2, “Chromane compounds” (CoMentis, Inc., priority 2012, dated 2015)
Like-named read-outs stand apart in the source and are kept apart here.

Columns and labels:
hERG potassium channel = hERG potassium channel (Homo sapiens (Human), UniProt Q12809); assay: hERG inhibition, automated planar patch-clamp in hERG-expressing CHO cells; conditions: for selectivity ratio: human, CHO-K1 cells stably expressing hERG, pH 7.4
BACE1 [1] = biological target: T1, BACE1 (Homo sapiens (Human), UniProt P56817); assay: Measurement of BACE1 inhibition by fluorescence resonance energy transfer (FRET), MCA substrate; conditions: for IC50: read-out: Test Example 1 IC50, MCA-SEVNLDAEFK(DNP)-NH2 substrate, pH 4.4
Target sequence in this assay (P56817 75-416): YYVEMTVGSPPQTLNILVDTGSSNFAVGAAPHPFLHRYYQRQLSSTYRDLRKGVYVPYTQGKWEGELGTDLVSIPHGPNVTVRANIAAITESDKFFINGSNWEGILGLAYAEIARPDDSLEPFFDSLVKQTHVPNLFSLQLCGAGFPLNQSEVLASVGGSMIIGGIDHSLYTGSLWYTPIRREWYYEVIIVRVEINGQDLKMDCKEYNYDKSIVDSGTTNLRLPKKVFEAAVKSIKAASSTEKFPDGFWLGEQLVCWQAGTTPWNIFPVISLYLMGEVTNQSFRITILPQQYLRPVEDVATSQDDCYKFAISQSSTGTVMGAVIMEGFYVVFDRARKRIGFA

BACE1 [2] = biological target: T1, BACE1; assay: Measurement of Aβ production inhibition in cell (SK-N-BE(2) neuroblastoma cells, Aβ40 ELISA); conditions: Test Example 3 IC50, Aβ40 production, SK-N-BE(2) cells, 6 hours
Target sequence in this assay (P56817 46-501): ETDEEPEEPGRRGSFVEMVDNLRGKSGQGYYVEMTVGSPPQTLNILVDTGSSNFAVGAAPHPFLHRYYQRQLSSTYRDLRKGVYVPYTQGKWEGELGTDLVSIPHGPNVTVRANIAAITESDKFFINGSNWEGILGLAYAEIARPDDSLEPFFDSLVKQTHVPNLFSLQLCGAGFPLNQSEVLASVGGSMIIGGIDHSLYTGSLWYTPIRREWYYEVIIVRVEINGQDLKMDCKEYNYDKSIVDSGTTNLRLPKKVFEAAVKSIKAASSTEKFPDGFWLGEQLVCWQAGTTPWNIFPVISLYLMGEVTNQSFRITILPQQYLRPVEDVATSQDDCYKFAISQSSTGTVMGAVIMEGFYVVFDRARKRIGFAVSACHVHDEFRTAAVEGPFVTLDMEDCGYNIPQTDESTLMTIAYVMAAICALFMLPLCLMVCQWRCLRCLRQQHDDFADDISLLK
Method: The potency of compounds against BACE1 activity was determined in a cellular assay of Aβ production. […] Test compounds were dissolved in dimethyl sulfoxide and diluted with dimethyl sulfoxide and put into RPMI1640/5% FBS/penicillin-streptomycin media (final dimethyl sulfoxide concentration is 0.5%). […] CellTiter-Glo Substrate was dissolved into CellTiter-Glo Buffer and added to the plates in 95 μL/well. After shaking the plates for 2 minutes, the whole sample was transferred into a white 96-well plate and luminescence was measured for ATP quantification as the cell viability. Aβ concentration measured by ELISA was normalized by the viability of the corresponding cells.

[3] = read-out: Test Example 5 hERG IC50, whole-cell patch clamp, room temperature
[4] = read-out: Test Example 1 BACE1 MCA Ki, FRET, MCA substrate

Sequence of hERG potassium channel (Q12809 whole entry): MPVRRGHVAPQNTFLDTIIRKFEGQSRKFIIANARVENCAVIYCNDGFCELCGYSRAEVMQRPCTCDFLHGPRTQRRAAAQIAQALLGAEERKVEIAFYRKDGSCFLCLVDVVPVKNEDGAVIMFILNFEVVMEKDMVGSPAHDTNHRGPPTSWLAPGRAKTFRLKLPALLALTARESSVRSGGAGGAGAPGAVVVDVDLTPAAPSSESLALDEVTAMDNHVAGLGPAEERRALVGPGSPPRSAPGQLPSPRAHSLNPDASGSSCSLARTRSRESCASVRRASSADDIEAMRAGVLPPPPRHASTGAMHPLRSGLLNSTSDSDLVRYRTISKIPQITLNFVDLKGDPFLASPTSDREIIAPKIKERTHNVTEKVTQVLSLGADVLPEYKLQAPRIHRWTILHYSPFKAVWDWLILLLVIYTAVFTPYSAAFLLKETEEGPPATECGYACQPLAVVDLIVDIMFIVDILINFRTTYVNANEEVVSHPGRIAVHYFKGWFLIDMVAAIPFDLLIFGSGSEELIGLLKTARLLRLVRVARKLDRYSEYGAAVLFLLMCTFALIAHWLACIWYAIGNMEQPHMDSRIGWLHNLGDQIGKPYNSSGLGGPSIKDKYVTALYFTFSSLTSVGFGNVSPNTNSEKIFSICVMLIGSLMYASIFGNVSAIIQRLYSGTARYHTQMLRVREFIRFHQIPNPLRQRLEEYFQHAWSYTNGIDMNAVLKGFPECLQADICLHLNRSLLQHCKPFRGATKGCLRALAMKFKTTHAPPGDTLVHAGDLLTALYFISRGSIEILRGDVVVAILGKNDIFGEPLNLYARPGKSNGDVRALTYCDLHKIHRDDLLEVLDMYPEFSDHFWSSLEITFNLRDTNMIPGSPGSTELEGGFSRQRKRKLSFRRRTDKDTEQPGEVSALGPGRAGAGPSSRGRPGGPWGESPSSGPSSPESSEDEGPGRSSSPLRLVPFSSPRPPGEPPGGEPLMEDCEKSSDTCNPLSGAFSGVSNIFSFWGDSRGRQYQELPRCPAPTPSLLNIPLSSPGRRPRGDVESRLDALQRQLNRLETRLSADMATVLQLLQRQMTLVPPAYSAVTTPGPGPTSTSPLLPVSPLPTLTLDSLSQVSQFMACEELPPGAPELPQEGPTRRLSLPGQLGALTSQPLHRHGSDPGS

| SMILES | IC50 (BACE1 [1]; FRET) [nM] | IC50 (BACE1 [2]) [nM] | other results |
| --- | --- | --- | --- |
| C[C@H]1Oc2ccc(-c3cccnc3F)cc2[C@@]2(COC(N)=N2)C12COC2 (racemic) [RP 77] | – | – | IC50 (hERG potassium channel): > 10000 nM |
| C[C@@H]1Oc2ccc(-c3cccnc3F)cc2[C@@]2(COC(N)=N2)C12COC2 (racemic) [RP 79] | – | – | IC50 (hERG potassium channel; [3]): > 10000 nM |
| CC1(C)Cc2ccc(NC(=O)c3ccc(Cl)cn3)cc2C2(COC(N)=N2)C1 (racemic) [WO2011/123674 Example 89, reference compound] | – | – | Ki (BACE1 [1]): 241 nM; IC50 (hERG potassium channel): 440 nM; selectivity ratio (hERG potassium channel): 1.8 |
| Cc1cnc(C(=O)Nc2ccc3c(c2)C2(COC(N)=N2)CC(C)(C)C3)cn1 (racemic) [WO2011/123674 Example 98, reference compound] | – | – | Ki (BACE1 [1]): 4090 nM; IC50 (hERG potassium channel): 9460 nM; selectivity ratio (hERG potassium channel): 2.3 |
| NC1=NC2(CO1)c1cc(Br)ccc1OC(CC1CC1)C21COC1 (single isomer, unassigned) [RP 16a] | 9540 | – | IC50 (hERG potassium channel; [3]): > 10000 nM |
| COc1cnc(C(=O)Nc2ccc3c(c2)C2(COC(N)=N2)C2(COC2)C(C)(C)O3)cn1 (stereo not drawn) [Example 227] | – | – | IC50 (hERG potassium channel; [3]): > 10000 nM |
| NC1=NC2(CO1)c1cc(Br)ccc1OC1(CCCC1)C21COC1 (stereo not drawn) [RP 10] | 7210 | – | IC50 (hERG potassium channel; [3]): > 10000 nM |
| CC1(C)Oc2ccc(-c3cncnc3)cc2C2(COC(N)=N2)C12COC2 (stereo not drawn) [RP 69] | 397 | 40 | – |
| NC1=NC2(CO1)c1cc(-c3cncc(F)c3)ccc1OC1(CCC1)C21COC1 (stereo not drawn) [RP 70] | 1750 | 960 | – |
| COc1cncc(-c2ccc3c(c2)C2(COC(N)=N2)C2(COC2)C2(CCC2)O3)c1 (stereo not drawn) [RP 72] | 817 | 68 | – |
| NC1=NC2(CO1)c1cc(-c3cc(Cl)cnc3F)ccc1OC1(CCC1)C21COC1 (stereo not drawn) [RP 73] | 827 | 70 | – |
| Cc1cnnc(-c2ccc3c(c2)C2(COC(N)=N2)C2(COC2)C2(CCC2)O3)c1 (stereo not drawn) [RP 76] | 13400 | – | IC50 (hERG potassium channel; [3]): > 10000 nM |
| CC1(C)Oc2ccc(-c3cccnc3F)cc2C2(COC(N)=N2)C12COC2 (stereo not drawn) [RP 82] | 348 | 36 | – |
| CCC1Oc2ccc(-c3cncnc3)cc2C2(COC(N)=N2)C12COC2 (stereo not drawn) [RP 87] | 1550 | 430 | – |
| CC(C)CC1Oc2ccc(-c3cncnc3)cc2C2(COC(N)=N2)C12COC2 (stereo not drawn) [RP 90] | 901 | – | IC50 (hERG potassium channel; [3]): > 10000 nM |
| CC(C)CC1Oc2ccc(-c3cncnc3)cc2C2(COC(N)=N2)C12COC2 (stereo not drawn) [RP 93] | 629 | 370 | – |
| CCCC1Oc2ccc(-c3cncnc3)cc2C2(COC(N)=N2)C12COC2 (stereo not drawn) [RP 94] | 862 | 380 | – |
| CC#Cc1cncc(-c2ccc3c(c2)C2(COC(N)=N2)C2(COC2)C(CCC(F)(F)F)O3)c1 (stereo not drawn) [RP 96] | 126 | 22 | Ki (BACE1 [1]; [4]): 868 nM |
| NC1=NC2(CO1)c1cc(-c3cncnc3)ccc1OCC21CCCO1 (stereo not drawn) [RP 97] | 20200 | 2600 | – |
| NC1=NC2(CO1)c1cc(-c3cccnc3F)ccc1OCC21CC1 (stereo not drawn) [RP 103] | 2190 | 450 | – |
| NC1=NC2(CO1)c1cc(-c3cncc(Cl)c3)ccc1OCC21CC1 (stereo not drawn) [RP 107] | 1060 | 460 | – |

| SMILES | IC50 (BACE1 [1]; FRET) [nM] | IC50 (BACE1 [2]) [nM] | other results |
| --- | --- | --- | --- |
| CC#Cc1cncc(-c2ccc3c(c2)C2(COC(N)=N2)C2(COC2)C2(CCC2)O3)c1 (stereo not drawn) [RP 109] | 152 | 48 | Ki (BACE1 [1]; [4]): 120 nM |
| CC#Cc1cncc(-c2cc3c(cc2F)OCC2(CC2)C32COC(N)=N2)c1 (stereo not drawn) [RP 112] | 400 | 660 | – |
| CC#Cc1cncc(-c2ccc3c(c2)C2(COC(N)=N2)C2(CCC2)CO3)c1 (stereo not drawn) [RP 113] | 1110 | 470 | – |
| N#Cc1ncccc1-c1ccc2c(c1)C1(COC(N)=N1)C1(COC1)C1(CCC1)O2 (stereo not drawn) [RP 115, 3-(2″-aminotrispiro[cyclobutane-1,2′-chromene-4′,4″-[1,3]oxazole-3′,3′″-oxetan]-6′-yl)pyridine-2-carbonitrile] | 3310 | 1100 | – |
| Cc1cnc(F)c(-c2ccc3c(c2)C2(COC(N)=N2)C2(COC2)C2(CCC2)O3)c1 (stereo not drawn) [RP 116, 6′-(2-fluoro-5-methylpyridin-3-yl)trispiro[cyclobutane-1,2′-chromene-4′,4″-[1,3]oxazole-3′,3′″-oxetan]-2″-amine] | – | – | IC50 (hERG potassium channel; [3]): > 10000 nM |
| N#Cc1cncc(-c2ccc3c(c2)C2(COC(N)=N2)C2(COC2)C2(CCC2)O3)c1 (stereo not drawn) [RP 120] | 1890 | 2300 | – |
| COc1cc(-c2ccc3c(c2)C2(COC(N)=N2)C2(COC2)C2(CCC2)O3)c(F)cn1 (stereo not drawn) [RP 122] | 2740 | 1100 | – |
| NC1=NC2(CO1)c1cc(-c3cccc(F)c3)ccc1OC1(CCC1)C21COC1 (stereo not drawn) [RP 125] | 2310 | 580 | – |
| COc1cccc(-c2ccc3c(c2)C2(COC(N)=N2)C2(COC2)C2(CCC2)O3)c1 (stereo not drawn) [RP 126] | 696 | 1200 | – |
| Cc1cccc(-c2ccc3c(c2)C2(COC(N)=N2)C2(COC2)C2(CCC2)O3)c1 (stereo not drawn) [RP 127] | 2270 | 1800 | – |
| N#Cc1cccc(-c2ccc3c(c2)C2(COC(N)=N2)C2(COC2)C2(CCC2)O3)c1 (stereo not drawn) [RP 128] | 1680 | 1500 | – |
| CCOc1cc(-c2ccc3c(c2)C2(COC(N)=N2)C2(COC2)C2(CCC2)O3)cc(C(F)(F)F)c1 (stereo not drawn) [RP 129] | 2210 | 7300 | – |
| NC1=NC2(CO1)c1cc(-c3cc(F)ccc3F)ccc1OC1(CCC1)C21COC1 (stereo not drawn) [RP 130] | 1870 | 1700 | – |
| CCOc1cccc(-c2ccc3c(c2)C2(COC(N)=N2)C2(COC2)C2(CCC2)O3)c1 (stereo not drawn) [RP 131] | 2020 | 3200 | – |
| N#C/C=C/c1cccc(-c2ccc3c(c2)C2(COC(N)=N2)C2(COC2)C2(CCC2)O3)c1 (stereo not drawn) [RP 132] | 2450 | 1200 | – |
| CCOc1cc(F)cc(-c2ccc3c(c2)C2(COC(N)=N2)C2(COC2)C2(CCC2)O3)c1 (stereo not drawn) [RP 133] | 1670 | 2800 | – |
| NC1=NC2(CO1)c1cc(C3=CCCCC3)ccc1OC1(CCC1)C21COC1 (stereo not drawn) [RP 135] | 3270 | 1800 | – |
| COc1ccc(F)c(-c2ccc3c(c2)C2(COC(N)=N2)C2(COC2)C2(CCC2)O3)c1 (stereo not drawn) [RP 136, 6′-(2-fluoro-5-methoxyphenyl)trispiro[cyclobutane-1,2′-chromene-4′,4″-[1,3]oxazole-3′,3′″-oxetan]-2″-amine] | 635 | 660 | – |
| COc1cccc(-c2ccc3c(c2)C2(COC(N)=N2)C2(COC2)C2(CCC2)O3)c1F (stereo not drawn) [RP 137] | 773 | 830 | – |
| NC1=NC2(CO1)c1cc(-c3cccc(F)c3F)ccc1OC1(CCC1)C21COC1 (stereo not drawn) [RP 138] | 1670 | 1500 | – |
| CC1(C)Oc2ccc(-c3cccc(Cl)c3)cc2C2(COC(N)=N2)C12COC2 (stereo not drawn) [RP 139] | 252 | 140 | Ki (BACE1 [1]; [4]): 215 nM |

| SMILES | IC50 (BACE1 [1]; FRET) [nM] | IC50 (BACE1 [2]) [nM] | other results |
| --- | --- | --- | --- |
| CC1(C)Oc2ccc(-c3cccc(C4CC4)c3)cc2C2(COC(N)=N2)C12COC2 (stereo not drawn) [RP 140] | 389 | 410 | – |
| CC1(C)Oc2ccc(-c3cccc(C(F)(F)F)c3)cc2C2(COC(N)=N2)C12COC2 (stereo not drawn) [RP 141] | 903 | 1300 | – |
| COc1cccc(-c2ccc3c(c2)C2(COC(N)=N2)C2(COC2)C(C)(C)O3)c1 (stereo not drawn) [RP 142] | 401 | 150 | – |
| CCOc1cccc(-c2ccc3c(c2)C2(COC(N)=N2)C2(COC2)C(C)(C)O3)c1 (stereo not drawn) [RP 144] | 879 | 460 | – |
| CC1(C)Oc2ccc(-c3cc(F)cc(Cl)c3)cc2C2(COC(N)=N2)C12COC2 (stereo not drawn) [RP 146, 6′-(3-chloro-5-fluorophenyl)-2′,2′-dimethyldispiro[1,3-oxazole-4,4′-chromene-3′,3″-oxetan]-2-amine] | 226 | 210 | Ki (BACE1 [1]; [4]): 188 nM |
| CC1(C)Oc2ccc(-c3cc(F)cc(F)c3)cc2C2(COC(N)=N2)C12COC2 (stereo not drawn) [RP 147] | 621 | 170 | – |
| Cc1cc(F)cc(-c2ccc3c(c2)C2(COC(N)=N2)C2(COC2)C(C)(C)O3)c1 (stereo not drawn) [RP 148] | 614 | 480 | – |
| Cc1cnc(Cl)c(-c2ccc3c(c2)C2(COC(N)=N2)C2(COC2)C(C)(C)O3)c1 (stereo not drawn) [RP 151] | 1360 | 280 | – |
| CC1(C)Oc2ccc(-c3cc(Cl)cnc3Cl)cc2C2(COC(N)=N2)C12COC2 (stereo not drawn) [RP 152] | 688 | 110 | – |
| CC1(C)Oc2ccc(-c3cc(F)cnc3Cl)cc2C2(COC(N)=N2)C12COC2 (stereo not drawn) [RP 153] | 1130 | 130 | – |
| CC1(C)Oc2ccc(-c3cccnc3Cl)cc2C2(COC(N)=N2)C12COC2 (stereo not drawn) [RP 156] | 2610 | 180 | – |
| Cc1cc(-c2ccc3c(c2)C2(COC(N)=N2)C2(COC2)C(C)(C)O3)cnc1F (stereo not drawn) [RP 157] | 2800 | 660 | – |
| CC1(C)Oc2ccc(-c3cc(F)ncc3Cl)cc2C2(COC(N)=N2)C12COC2 (stereo not drawn) [RP 158] | 930 | 370 | – |
| NC1=NC2(CO1)c1cc(NC(=O)c3ncc(Br)cn3)ccc1OCC21CC1 (stereo not drawn) [RP 189] | 661 | 43 | Ki (BACE1 [1]; [4]): 623 nM |
| Cc1cc(C#N)cnc1C(=O)Nc1ccc2c(c1)C1(COC(N)=N1)C1(CC1)CO2 (stereo not drawn) [RP 191] | – | – | IC50 (hERG potassium channel; [3]): > 10000 nM |
| COc1cnc(C(=O)Nc2ccc3c(c2)C2(COC(N)=N2)C2(CC2)CO3)cn1 (stereo not drawn) [RP 193] | 1040 | 81 | – |
| N#Cc1ccc(C(=O)Nc2ccc3c(c2)C2(COC(N)=N2)C2(CC2)CO3)nc1 (stereo not drawn) [RP 196] | 380 | 53 | Ki (BACE1 [1]; [4]): 342 nM |
| CC#Cc1cncc(-c2ccc3c(c2)C2(COC(N)=N2)C2(COC2)C(CC2CC2)O3)c1 (stereo not drawn) [RP 205] | 126 | 22 | Ki (BACE1 [1]; [4]): 82.5 nM |
| NC1=NC2(c3cc(-c4cncnc4)ccc3OCC23CC3)C(F)(F)CO1 (stereo not drawn) [RP 206] | 4910 | > 30000 | – |
